Results from US8765776B2, “Antihypertensive pharmaceutical composition” (Boryung Pharmaceutical Co., Ltd., priority 2011, dated 2014).
Where a name gives a salt, the structure may show the parent alone.

What was measured:
[1] = test system: spontaneously hypertensive rats (SHR); experiment: 4-week repeated oral administration antihypertensive test in spontaneously hypertensive rats (non-invasive tail-cuff CODA-6); assay type: in vivo, rat; settings: 4 weeks; for Antihypertensive degree with consecutive 4-week administration of drugs, as compared to blood pressure prior to administration (Mean): n=8, F1 = Fimasartan potassium trihydrate 3 mg/kg, F2 = 10 mg/kg, L = Losartan potassium 10 mg/kg, V = Valsartan 10 mg/kg, A1 = Amlodipine besylate 0.5 mg/kg, A2 = 1.6 mg/kg
From the text: This study is intended to examine antihypertensive action of individual drugs. For this purpose, test drugs, i.e., Fimasartan potassium trihydrate, Losartan potassium salt, Valsartan, Amlodipine besylate, a combination of Fimasartan potassium trihydrate with Amlodipine besylate, a combination of Losartan potassium salt with Amlodipine besylate, and a combination of Valsartan with Amlodipine besylate were repeatedly and orally administered for 4 weeks to rats with essential hypertension. […] In this manner, the antihypertensive action was compared and evaluated between the individual drugs.
8-week old male spontaneously hypertensive rats (SHR), weighing 230 to 250 g, were purchased from Charles River Japan (CRJ). The animals were used in the test, after being subjected to an acclimation period until the animals were 18 to 19-week old (340 to 380 g) to reach a mean blood pressure of 160 to 170 mmHg. Animals with a good condition were selected by minute observation over the acclimation period prior to the test, and divided into individual test groups, each consisting of 8 animals (n=8). Only the selected animals, from which a rise in blood pressure was confirmed using a non-invasive blood pressure monitoring system (CODA-6), were assigned to the test group.
Low, medium and high doses of the drugs according to individual drugs were established in the preliminary test. […] All the doses referred to those used in the already performed test. Doses and drug-administered groups used in the final main test are as follows.
As an ARB compound, Losartan potassium salt, Valsartan and Fimasartan potassium trihydrate were respectively purchased and used from Zhejiang Huahai Pharmaceutical Co., Ltd. 10 mg/kg of Losartan potassium salt was taken as an L group, and 10 mg/kg of Valsartan was taken as a V group. With regard to Fimasartan potassium trihydrate, 3 mg/kg was taken as an F1 group, and 10 mg/kg was taken as an F2 group.
As a calcium channel blocker, Amlodipine besylate (home-made by the method described in U.S. Pat. No. 4,572,909) was used. 0.5 mg/kg of Amlodipine besylate was taken as an A 1 group, and a dose of 1.6 mg/kg was taken as an A2 group. The test materials and the comparative drugs were each suspended in 0.5% carboxymethylcellulose sodium salt (CMC—Na, Sigma) prior to using. As a control group, 0.5% CMC alone was administered.
{circumflex over (3)} Test Method • Administration: Upon carrying out the administration, the drug preparation was heated to a suitable temperature of 35° in a water bath, followed by forced oral administration of 5 mL/kg via a stomach sonde. • Measurement of blood pressure: Blood pressure of rats was measured as follows. Rats were restrained and placed in a heating device which was then heated to a temperature of about 40° (based on the temperature of 37° in a restraining cage) over 13 minutes, such that the tail blood vessels were engorged, and the blood pressure of rats was measured using CODA-6 equipment that monitors a blood pressure by means of the software of the main body through a pair of cuffs attached to the tail. The non-invasive blood pressure measuring method via CODA-6 (Kent Scientific Corporation) enables a long-term blood pressure measuring test that should involve repeated administration of test materials, which is not feasible with a direct blood pressure measuring method through arterial cannulation, such as conventionally used physiograph or power lab.
Changes in blood pressure were confirmed with focusing on changes in mean arterial pressure (MAP), and changes in diastolic and systolic blood pressure, heart rate, and body weight were used as references for other changes in the experimental results.

[2] = test system: patients with mild to moderate essential hypertension; settings: Week 12 of drug administration, dose 60 mg to 120 mg; cited from earlier work

CCOC(=O)C1=C(COCCN)NC(C)=C(C(=O)OC)C1c1ccccc1Cl (single isomer, unassigned) [Comparative Example 5, Amlodipine besylate]
Antihypertensive degree with consecutive 4-week administration of drugs, as compared to blood pressure prior to administration (Mean) [1]: −13 mmHg

CCOC(=O)C1=C(COCCN)NC(C)=C(C(=O)OC)C1c1ccccc1Cl (single isomer, unassigned) [Comparative Example 6, Amlodipine besylate]
Antihypertensive degree with consecutive 4-week administration of drugs, as compared to blood pressure prior to administration (Mean) [1]: −20 mmHg

CCCCc1nc(C)c(CC(=S)N(C)C)c(=O)n1Cc1ccc(-c2ccccc2-c2nnn[nH]2)cc1 [Comparative Example 1, Fimasartan potassium trihydrate]
Antihypertensive effect compared to Comparative Example 3 and Comparative Example 4 ([1]; 3 mg/kg Fimasartan potassium trihydrate vs 10 mg/kg Losartan potassium or Valsartan): superior antihypertensive effect | Antihypertensive degree with consecutive 4-week administration of drugs, as compared to blood pressure prior to administration (Mean) ([1]; potassium trihydrate): −35 mmHg

CCCCc1nc(C)c(CC(=S)N(C)C)c(=O)n1Cc1ccc(-c2ccccc2-c2nnn[nH]2)cc1 [Comparative Example 2, Fimasartan potassium trihydrate]
Antihypertensive degree with consecutive 4-week administration of drugs, as compared to blood pressure prior to administration (Mean) ([1]; potassium trihydrate): −50 mmHg

CCCCc1nc(Cl)c(CO)n1Cc1ccc(-c2ccccc2-c2nn[nH]n2)cc1 [Comparative Example 3, Losartan potassium salt]
Antihypertensive degree with consecutive 4-week administration of drugs, as compared to blood pressure prior to administration (Mean) [1]: −20 mmHg

CCCCC(=O)N(Cc1ccc(-c2ccccc2-c2nnn[nH]2)cc1)[C@H](C(=O)O)C(C)C [Comparative Example 4, Valsartan]
Antihypertensive degree with consecutive 4-week administration of drugs, as compared to blood pressure prior to administration (Mean) [1]: −32 mmHg

CCCCc1nc(Cl)c(CO)n1Cc1ccc(-c2ccccc2-c2nn[nH]n2)cc1 [Losartan]
Change in diastolic blood pressure (DBP) in the sitting position relative to baseline [2]: −8.56±7.72 mmHg
